# In PubChem BioAssay (NCI):
#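 A five-concentration, 48-hour dose response in 96-well plates underlies each endpoint, interpolated linearly between surrounding concentrations. GI50 = concentration required for 50% inhibition of growth. TGI: total growth inhibition.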
# Tested on: SN12K1 renal
# Test: NCI anticancer screen, dose series, 48 h
SMILES,GI50 [µM],TGI [µM]
CCC/C=C/C=C/C(=O)OC1/C(=C/C(=O)OC)CC2CC(C(C)O)OC(=O)CC(O)CC3CC(OC(C)=O)C(C)(C)C(O)(CC4C/C(=C/C(=O)OC)CC(/C=C/C(C)(C)C1(O)O2)O4)O3 (stereo not drawn),> 11,> 11
NC(CSC(c1ccccc1)(c1ccccc1)c1ccccc1)C(=O)O (stereo not drawn),,2.21
